Reference: ChEMBL document CHEMBL3045111, “Synthesis and herbicidal activities of novel 3-(substituted benzyloxy or phenoxy)-6-methyl-4-(3-trifluoromethylphenyl)pyridazine derivatives” (2012)
Active and inactive are the calls of the source. No cut-off for these calls is given here.

Assays:
[1] = test system: Brassica rapa subsp. oleifera; assay: Post-emergence herbicidal activity against one-leaf stage Brassica rapa subsp. oleifera under greenhouse condition assessed as complete bleaching of leaves at 600 g /ha measured after 24 days by spray method; format: functional, organism-based
[2] = test system: Brassica rapa subsp. oleifera; assay: Post-emergence herbicidal activity against one-leaf stage Brassica rapa subsp. oleifera under greenhouse condition at 7.5 g /ha measured after 24 days by spray method; format: functional; details: 576 h, read-out: GI
[3] = test system: Brassica rapa subsp. oleifera; assay: Post-emergence herbicidal activity against one-leaf stage Brassica rapa subsp. oleifera under greenhouse condition at 15 g /ha measured after 24 days by spray method; format: functional; details: 576 h, read-out: GI
[4] = test system: Brassica rapa subsp. oleifera; assay: Post-emergence herbicidal activity against one-leaf stage Brassica rapa subsp. oleifera under greenhouse condition at 30 g /ha measured after 24 days by spray method; format: functional; details: 576 h, read-out: GI
[5] = test system: Brassica rapa subsp. oleifera; assay: Post-emergence herbicidal activity against one-leaf stage Brassica rapa subsp. oleifera under greenhouse condition at 60 g /ha measured after 24 days by spray method; format: functional; details: 576 h, read-out: GI
[6] = test system: Brassica rapa subsp. oleifera; assay: Post-emergence herbicidal activity against one-leaf stage Brassica rapa subsp. oleifera under greenhouse condition at 75 g /ha measured after 24 days by spray method; format: functional; details: 576 h, read-out: GI
[7] = test system: Brassica rapa subsp. oleifera; assay: Post-emergence herbicidal activity against one-leaf stage Brassica rapa subsp. oleifera under greenhouse condition at 150 g /ha measured after 24 days by spray method; format: functional; details: 576 h, read-out: GI
[8] = test system: Brassica rapa subsp. oleifera; assay: Post-emergence herbicidal activity against one-leaf stage Brassica rapa subsp. oleifera under greenhouse condition at 300 g /ha measured after 24 days by spray method; format: functional; details: 576 h, read-out: GI
[9] = test system: Brassica rapa subsp. oleifera; assay: Post-emergence herbicidal activity against one-leaf stage Brassica rapa subsp. oleifera under greenhouse condition at 600 g /ha measured after 24 days by spray method; format: functional; details: 576 h, read-out: GI
Digitaria [10] = assay: Post-emergence herbicidal activity against one-leaf stage of Digitaria adscendens under greenhouse condition at 750 g /ha measured after 24 days by spray method; format: functional; details: in Digitaria adscendens, 576 h, read-out: GI
Echinochloa crus-galli [11] = assay: Post-emergence herbicidal activity against one-leaf stage of Echinochloa crus-galli (barnyard grass) under greenhouse condition at 750 g /ha measured after 24 days by spray method; format: functional; details: 576 h, read-out: GI
Amaranthus retroflexus [12] = assay: Post-emergence herbicidal activity against one-leaf stage of Amaranthus retroflexus under greenhouse condition at 750 g /ha measured after 24 days by spray method; format: functional; details: 576 h, read-out: GI
[13] = test system: Brassica rapa subsp. oleifera; assay: Post-emergence herbicidal activity against one-leaf stage Brassica rapa subsp. oleifera under greenhouse condition at 750 g /ha measured after 24 days by spray method; format: functional; details: 576 h, read-out: GI
Digitaria [14] = assay: Pre-emergence herbicidal activity against Digitaria adscendens under greenhouse condition at 750 g /ha measured after 24 days by spray method; format: functional; details: in Digitaria adscendens, 576 h, read-out: GI
Echinochloa crus-galli [15] = assay: Pre-emergence herbicidal activity against Echinochloa crus-galli (barnyard grass) under greenhouse condition at 750 g /ha measured after 24 days by spray method; format: functional; details: 576 h, read-out: GI
Amaranthus retroflexus [16] = assay: Pre-emergence herbicidal activity against Amaranthus retroflexus under greenhouse condition at 750 g /ha measured after 24 days by spray method; format: functional; details: 576 h, read-out: GI
[17] = test system: Brassica rapa subsp. oleifera; assay: Pre-emergence herbicidal activity against Brassica rapa subsp. oleifera under greenhouse condition at 750 g /ha measured after 24 days by spray method; format: functional; details: 576 h, read-out: GI
Spirodela polyrhiza [18] = assay: Bleaching herbicidal activity in Spirodela polyrhiza fronds cultured in compound-containing in medium assessed as chlorophyll inhibition at 1 ug/ml after 7 days; format: functional; details: 168 h
Spirodela polyrhiza [19] = assay: Bleaching herbicidal activity in Spirodela polyrhiza fronds cultured in compound-containing in medium assessed as chlorophyll inhibition at 10 ug/ml after 7 days; format: functional; details: 168 h
Amaranthus retroflexus [20] = assay: Post-emergence herbicidal activity against one-leaf stage Amaranthus retroflexus under greenhouse condition assessed as complete bleaching of leaves at 150 g /ha measured after 24 days by spray method; format: functional, organism-based
Amaranthus retroflexus [21] = assay: Post-emergence herbicidal activity against one-leaf stage Amaranthus retroflexus under greenhouse condition assessed as complete bleaching of leaves at 300 g /ha measured after 24 days by spray method; format: functional, organism-based
Amaranthus retroflexus [22] = assay: Post-emergence herbicidal activity against one-leaf stage Amaranthus retroflexus under greenhouse condition assessed as complete bleaching of leaves at 600 g /ha measured after 24 days by spray method; format: functional, organism-based
[23] = test system: Brassica rapa subsp. oleifera; assay: Post-emergence herbicidal activity against one-leaf stage Brassica rapa subsp. oleifera under greenhouse condition assessed as complete bleaching of leaves at 7.5 g /ha measured after 24 days by spray method; format: functional, organism-based
[24] = test system: Brassica rapa subsp. oleifera; assay: Post-emergence herbicidal activity against one-leaf stage Brassica rapa subsp. oleifera under greenhouse condition assessed as complete bleaching of leaves at 15 g /ha measured after 24 days by spray method; format: functional, organism-based
[25] = test system: Brassica rapa subsp. oleifera; assay: Post-emergence herbicidal activity against one-leaf stage Brassica rapa subsp. oleifera under greenhouse condition assessed as complete bleaching of leaves at 30 g /ha measured after 24 days by spray method; format: functional, organism-based
[26] = test system: Brassica rapa subsp. oleifera; assay: Post-emergence herbicidal activity against one-leaf stage Brassica rapa subsp. oleifera under greenhouse condition assessed as complete bleaching of leaves at 60 g /ha measured after 24 days by spray method; format: functional, organism-based
[27] = test system: Brassica rapa subsp. oleifera; assay: Post-emergence herbicidal activity against one-leaf stage Brassica rapa subsp. oleifera under greenhouse condition assessed as complete bleaching of leaves at 75 g /ha measured after 24 days by spray method; format: functional, organism-based
[28] = test system: Brassica rapa subsp. oleifera; assay: Post-emergence herbicidal activity against one-leaf stage Brassica rapa subsp. oleifera under greenhouse condition assessed as complete bleaching of leaves at 150 g /ha measured after 24 days by spray method; format: functional, organism-based
[29] = test system: Brassica rapa subsp. oleifera; assay: Post-emergence herbicidal activity against one-leaf stage Brassica rapa subsp. oleifera under greenhouse condition assessed as complete bleaching of leaves at 300 g /ha measured after 24 days by spray method; format: functional, organism-based
Amaranthus retroflexus [30] = assay: Post-emergence herbicidal activity against one-leaf stage Amaranthus retroflexus under greenhouse condition assessed as complete bleaching of leaves at 15 g /ha measured after 24 days by spray method; format: functional, organism-based
Amaranthus retroflexus [31] = assay: Post-emergence herbicidal activity against one-leaf stage Amaranthus retroflexus under greenhouse condition at 7.5 g /ha measured after 24 days by spray method; format: functional; details: 576 h, read-out: GI
Amaranthus retroflexus [32] = assay: Post-emergence herbicidal activity against one-leaf stage Amaranthus retroflexus under greenhouse condition at 15 g /ha measured after 24 days by spray method; format: functional; details: 576 h, read-out: GI
Amaranthus retroflexus [33] = assay: Post-emergence herbicidal activity against one-leaf stage Amaranthus retroflexus under greenhouse condition at 30 g /ha measured after 24 days by spray method; format: functional; details: 576 h, read-out: GI
Amaranthus retroflexus [34] = assay: Post-emergence herbicidal activity against one-leaf stage Amaranthus retroflexus under greenhouse condition at 60 g /ha measured after 24 days by spray method; format: functional; details: 576 h, read-out: GI
Amaranthus retroflexus [35] = assay: Post-emergence herbicidal activity against one-leaf stage Amaranthus retroflexus under greenhouse condition at 75 g /ha measured after 24 days by spray method; format: functional; details: 576 h, read-out: GI
Amaranthus retroflexus [36] = assay: Post-emergence herbicidal activity against one-leaf stage Amaranthus retroflexus under greenhouse condition at 150 g /ha measured after 24 days by spray method; format: functional; details: 576 h, read-out: GI
Amaranthus retroflexus [37] = assay: Post-emergence herbicidal activity against one-leaf stage Amaranthus retroflexus under greenhouse condition at 300 g /ha measured after 24 days by spray method; format: functional; details: 576 h, read-out: GI
Amaranthus retroflexus [38] = assay: Post-emergence herbicidal activity against one-leaf stage Amaranthus retroflexus under greenhouse condition at 600 g /ha measured after 24 days by spray method; format: functional; details: 576 h, read-out: GI
Amaranthus retroflexus [39] = assay: Post-emergence herbicidal activity against one-leaf stage Amaranthus retroflexus under greenhouse condition assessed as complete bleaching of leaves at 7.5 g /ha measured after 24 days by spray method; format: functional, organism-based
Amaranthus retroflexus [40] = assay: Post-emergence herbicidal activity against one-leaf stage Amaranthus retroflexus under greenhouse condition assessed as complete bleaching of leaves at 30 g /ha measured after 24 days by spray method; format: functional, organism-based
Amaranthus retroflexus [41] = assay: Post-emergence herbicidal activity against one-leaf stage Amaranthus retroflexus under greenhouse condition assessed as complete bleaching of leaves at 60 g /ha measured after 24 days by spray method; format: functional, organism-based
Amaranthus retroflexus [42] = assay: Post-emergence herbicidal activity against one-leaf stage Amaranthus retroflexus under greenhouse condition assessed as complete bleaching of leaves at 75 g /ha measured after 24 days by spray method; format: functional, organism-based

## Cc1cc(-c2cccc(C(F)(F)F)c2)c(Oc2ccc(C#N)cc2)nn1
[1]
  Activity: Active
[2]
  inhibition of growth at 7.5 g/ha: 41%
[3]
  inhibition of growth at 15 g/ha: 47%
[4]
  inhibition of growth at 30 g/ha: 57%
[5]
  inhibition of growth at 60 g/ha: 89%
[6]
  inhibition of growth at 75 g/ha: 90%
[7]
  inhibition of growth at 150 g/ha: 95%
[8]
  inhibition of growth at 300 g/ha: 98%
[9]
  inhibition of growth at 600 g/ha: 99%
Digitaria [10]
  inhibition of growth at 750 g/ha: 99%
Echinochloa crus-galli [11]
  inhibition of growth at 750 g/ha: 83%
Amaranthus retroflexus [12]
  inhibition of growth at 750 g/ha: 100%
[13]
  inhibition of growth at 750 g/ha: 96%
Digitaria [14]
  inhibition of growth at 750 g/ha: 99%
Echinochloa crus-galli [15]
  inhibition of growth at 750 g/ha: 91%
Amaranthus retroflexus [16]
  inhibition of growth at 750 g/ha: 99%
[17]
  inhibition of growth at 750 g/ha: 100%
Spirodela polyrhiza [18]
  inhibition at 1 µg/mL: 87%
Spirodela polyrhiza [19]
  inhibition at 10 µg/mL: 93%
Amaranthus retroflexus [20]
  Activity: Active
Amaranthus retroflexus [21]
  Activity: Active
Amaranthus retroflexus [22]
  Activity: Active
[23]
  Activity: Active
[24]
  Activity: Active
[25]
  Activity: Active
[26]
  Activity: Active
[27]
  Activity: Active
[28]
  Activity: Active
[29]
  Activity: Active
Amaranthus retroflexus [30]
  Activity: Active
Amaranthus retroflexus [31]
  inhibition of growth at 7.5 g/ha: 34%
Amaranthus retroflexus [32]
  inhibition of growth at 15 g/ha: 37%
Amaranthus retroflexus [33]
  inhibition of growth at 30 g/ha: 38%
Amaranthus retroflexus [34]
  inhibition of growth at 60 g/ha: 42%
Amaranthus retroflexus [35]
  inhibition of growth at 75 g/ha: 99%
Amaranthus retroflexus [36]
  inhibition of growth at 150 g/ha: 100%
Amaranthus retroflexus [37]
  inhibition of growth at 300 g/ha: 100%
Amaranthus retroflexus [38]
  inhibition of growth at 600 g/ha: 100%
Amaranthus retroflexus [39]
  Activity: Active
Amaranthus retroflexus [40]
  Activity: Active
Amaranthus retroflexus [41]
  Activity: Active
Amaranthus retroflexus [42]
  Activity: Active
